The source of these data is patent US9592212B2, “Use of pan-PPAR agonists for treatment of tauopathies” (Cornell University, priority 2011, dated 2017).

For series [1] the following is noted: used in man for more than 25 years; cited from earlier work.
The subject of the next series is P301S mice. Put plainly: Mitochondria characterisation in brains of P301S and wild-type mice. Type of series: in vivo. The source says:
Animals were generated by breeding P301S transgenic male mice with wild-type female mice obtained from Jackson Laboratory (Bar Harbor, Me., USA). Offspring were genotyped by PCR of tail DNA. P301S transgenic mice and their wild-type littermates were randomly assigned to receive either control diet (LabDiet 5002) or 0.5% bezafibrate diet (Sigma, St. Louis, Mo., USA) from 1 to 10 months of age ad libitum. The chow was pelleted by Purina-Mills (Richmond, Ind., USA). Behavioral analyses were performed at 5, 7, and 9 months of age. Histopathological and biochemical analyses were conducted at 10 months of age on the same animals. All experiments were approved by the Weill Cornell Medical College Institutional Animal Care and Use Committee.
Dissected, non-perfused frontal lobe samples (˜30-55 mg) were stored frozen at ? 80° C. until assaying. Before assays, tissue samples were thawed on ice and homogenized with Dounce-type 2 ml homogenizer (glass vessel/glass pestle). […]
The protein lysates containing equal amounts of protein were separated by SDS-PAGE, electroblotted onto a nitrocellulose membrane (BioRad, Hercules, Calif., USA), and immunoreacted with an appropriate primary antibody (see below) followed by HRP-conjugated secondary antibody (Kierkegaard Perry Labs Inc., Gaithersburg, Md., USA). […] Quantitative analysis was performed using NIH “ImageJ” software. […]

Series [2] concerns R6/2 mice. Put plainly: Survival of R6/2 mice (Kaplan-Meier). Type of series: in vivo. The following applies: 0.5% bezafibrate diet. How it is done: (§1) All experiments were conducted within National Institutes of Health guidelines for animal research and were approved by the Weill Cornell Medical College Animal Care and Use Committee. The animals were kept on a 12-hr light/dark cycle, with food and water available ad libitum. Mice were fed standard diet containing 0.5% bezafibrate or standard diet (Purina-Mills Richmond, Ind., USA), starting right after weaning up to 3 months of age.
R6/2 mice normally die prematurely as compared to their wild-type littermates, between the age of 70-91 days (Mangiarini et al. 1996). Symptomatic mice approaching the disease endstage were examined twice daily (morning and late afternoon) to assess when they reached end-stage of the disease, as assessed by the righting reflex or failure to eat moistened chow placed beside mice over a 24 hour period. At this point, mice were euthanized by CO2 inhalation. This day was recorded as time of death of the mice. […] In our hands, the R6/2 mice survived to 77-88 days of age, and the longest living mouse died at 90 days of age (mean=84+1.2 days). Bezafibrate treated R6/2 mice lived 20% longer than the R6/2 mice on a standard diet (mean=102+3.2 days) (FIG. 2D).

The subject of series [3] is R6/2 mice. Put plainly: Behavioral tests (grip strength, open field, rotarod) in R6/2 mice. Type of series: in vivo. Conditions: 0.5% bezafibrate diet. How it is done: as §1
Experimenters were blind to the genotype during all testing, at least until the appearance of a robust behavioral phenotype in the mutants. We utilized a behavioral testing battery consisting of: rotarod, grip strength and open field. […] The latency to fall from the rod was recorded. Exploratory behavior was recorded in the open-field (45 cm×45 cm; height: 20 cm), for 10 min per day using a video tracking system (Ethovision 3.0, Noldus Technology, Attleborough, Mass., USA) and averaged over 3 days. […]
To assess muscle strength we tested the R6/2 mice and their wild-type littermates on the grip strength test (FIG. 2A). […] Motor coordination was assessed by performance on an accelerated rotarod apparatus. Latency to fall was recorded for 3 trials per weekly assessment and scores were averaged (FIG. 2C).
For orientation: Falling from the rotarod earlier than controls is read as motor impairment.

In another series the test system is N171-82Q mice. The following applies: cited from earlier work.

As for `CC(C)(Oc1ccc(CCNC(=O)c2ccc(Cl)cc2)cc1)C(=O)O` [bezafibrate], the tolerability in man result in series [1] is given as “well-tolerated with few side effects”. For the same compound, the “mitochondrial enzymes and PGC1α in brain” value in the series with P301S mice is recorded as “no effect”. Besides, the “increase in survival vs R6/2 mice on standard diet” value with R6/2 mice [2] came to 20%. Further, the mean survival in the series with R6/2 mice [2] (standard diet mean=84+1.2 days) is 102+3.2 days. For the same compound, in the series with R6/2 mice [3], the “increase in grip strength compared to untreated R6/2 mice” value is reported as “up to 2 fold”.

Turning to `CN(CC(=O)O)C(=N)N` [creatine], in the series with N171-82Q mice, the increase in survival is reported as 19%.
